Source: patent US20240247015A1, “PHOSPHORUS DERIVATIVES AS NOVEL SOS1 INHIBITORS” (BAYER AKTIENGESELLSCHAFT, priority 2021, published 2024)

Each molecule was assayed against interaction of human SOS1 (SOS1) with human K-RasG12C (Homo sapiens (Human), UniProt Q07889) (assay: Biochemical assay: hK-RasG12C interaction assay with hSOS1 (HTRF)). Conditions: GST-hK-RasG12C with His-hSOS1, 60 min incubation at 20° C., mean, read-out: K-RasG12C - SOS interaction assay IC50 (mean).
Type: binding
Procedure: Biochemical Assay: hK-RasG12C Interaction Assay with hSOS1 This assay quantifies the equilibrium interaction of human SOS1 (SOS1) with human K-Ras^G12^C (K-RasG12C). Detection of the interaction is achieved by measuring homogenous time-resolved fluorescence resonance energy transfer (HTRF) from antiGST-Europium (FRET donor) bound to GST-K-RasG12C to anti-6His-XL665 bound to His-tagged hSOS1 (FRET-acceptor). The assay buffer containes 5 mM HEPES pH 7.4 (Applichem), 150 mM NaCl (Sigma), […] (Promega), 1 mM DTT (Thermofisher), 0.05% BSA Fraction V, pH 7.0, (ICN Biomedicals), 0.0025% (v/v) Igepal (Sigma) and 100 mM KF (FLUKA). The expression and purification of N-terminally GST-tagged human K-RasG12C (termed GST-hK-RasG12C) and N-terminally His-tagged human SOS1 (termed His10-hSOS1) is described in WO 2019/201848, page 220 line 12-34 and page 222, line 13-25 (expression) and page 222, line 26 to page 223, line 17 (purification). Concentrations of protein batches used are optimized to be within the linear range of the HTRF signal. A Ras working solution is prepared in assay buffer containing typically 10 nM GST-hK-RasG12C and 2 nM antiGST-Eu(K) (Cisbio, France). A SOS1 working solution is prepared in assay buffer containing typically 20 nM His-hSOS1 and 10 nM anti-6His-XL665 (Cisbio, France). An inhibitor control solution is prepared in assay buffer containing nM anti-6His-XL665 without SOS1. Fifty nl of a 100-fold concentrated solution of the test compound in DMSO are transferred into a black microtiter test plate (384 or 1536, Greiner Bio-One, Germany). For this, either a Hummingbird liquid handler (Digilab, MA, USA) or an Echo acoustic system (Labcyte, CA, USA) is used. All steps of the assay are performed at 20° C. A volume of 2.5 μl of the Ras working solution is added to all wells of the test plate using a Multidrop dispenser (Thermo Labsystems). After 2 min preincubation, 2.5 μl of the SOS1 working solution are added to all wells except for those wells at the side of the test plate that are subsequently filled with 2.5 μl of the inhibitor control solution. After 60 min incubation the fluorescence is measured with a Pherastar (BMG, Germany) using the HTRF module (excitation 337 nm, emission 1: 620 nm, emission 2: 665 nm). The ratiometric data (emission 2 divided by emission 1) are normalized using the controls (DMSO=0% inhibition, inhibition control wells with inhibitor control solution=100% inhibition). Compounds are tested in duplicates at up to 11 concentrations (for 20 μM, 5,7 μM, 1,6 μM, 0.47 μM, 0.13 μM, 38 nM, 11 nM, 3.1 nM, 0.89 nM, 0.25 nM and 0.073 nM). IC50 values are calculated by 4-Parameter fitting using a commercial software package (Genedata Screener, Switzerland).

interaction of human SOS1 (SOS1) with human K-RasG12C, sequence (Q07889 564-1049 limits assumed): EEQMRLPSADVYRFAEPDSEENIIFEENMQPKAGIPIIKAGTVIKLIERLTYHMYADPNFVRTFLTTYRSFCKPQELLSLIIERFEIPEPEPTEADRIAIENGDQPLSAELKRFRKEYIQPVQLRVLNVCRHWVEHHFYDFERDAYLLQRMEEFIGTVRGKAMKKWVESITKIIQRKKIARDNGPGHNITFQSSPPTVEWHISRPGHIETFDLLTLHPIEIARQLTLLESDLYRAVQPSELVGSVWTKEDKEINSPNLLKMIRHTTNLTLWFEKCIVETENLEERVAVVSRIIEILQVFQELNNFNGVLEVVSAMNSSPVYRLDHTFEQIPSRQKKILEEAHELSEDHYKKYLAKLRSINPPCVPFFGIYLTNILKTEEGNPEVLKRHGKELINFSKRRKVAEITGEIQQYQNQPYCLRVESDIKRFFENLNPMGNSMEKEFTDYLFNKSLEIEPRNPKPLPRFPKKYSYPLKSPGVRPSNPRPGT

Compound | IC50 [nM]
Cc1nc(N[C@H](C)c2cccc(C(F)(F)C(C)(C)O)c2F)c2cc(P(C)(C)=O)nc(C)c2n1 [Example 11, 1-{3-[(1R)-1-{[6-(dimethylphosphoryl)-2,8-dimethylpyrido[3,4-d]pyrimidin-4-yl]amino}ethyl]-2-fluorophenyl}-1,1-difluoro-2-methylpropan-2-ol] | 52.9
Cc1nc(N[C@H](C)c2cccc(C(F)(F)C(C)(C)O)c2F)c2cc(P(=O)(C(C)C)C(C)C)ncc2n1 [Example 12, 1-{3-[(1R)-1-({6-[di(propan-2-yl)phosphoryl]-2-methylpyrido[3,4-d]pyrimidin-4-yl}amino)ethyl]-2-fluorophenyl}-1,1-difluoro-2-methylpropan-2-ol] | 59.4
Cc1nc(N[C@H](C)c2cccc(C(F)(F)F)c2C)c2cc(P(C)(C)=O)cnc2n1 [Example 13, 6-(dimethylphosphoryl)-2-methyl-N-{(1R)-1-[2-methyl-3-(trifluoromethyl)phenyl]ethyl}pyrido[2,3-d]pyrimidin-4-amine] | 16.3
Cc1nc(N[C@H](C)c2cccc(C(F)(F)C(C)(C)O)c2F)c2cc(P(=O)(C(C)C)C(C)C)cnc2n1 [Example 15, 1-{3-[(1R)-1-({6-[di(propan-2-yl)phosphoryl]-2-methylpyrido[2,3-d]pyrimidin-4-yl}amino)ethyl]-2-fluorophenyl}-1,1-difluoro-2-methylpropan-2-ol] | 47.1
Cc1nc(N[C@H](C)c2cccc(C(F)F)c2F)c2cc(P(C)(C)=O)c(C)nc2n1 [Example 18, N-{(1R)-1-[3-(difluoromethyl)-2-fluorophenyl]ethyl}-6-(dimethylphosphoryl)-2,7-dimethylpyrido[2,3-d]pyrimidin-4-amine] | 27.7
Cc1nc(N[C@H](C)c2cccc(C(F)(F)C(C)(C)O)c2F)c2cc(P(C)(C)=O)c(C)nc2n1 [Example 19, 1-{3-[(1R)-1-{[6-(dimethylphosphoryl)-2,7-dimethylpyrido[2,3-d]pyrimidin-4-yl]amino}ethyl]-2-fluorophenyl}-1,1-difluoro-2-methylpropan-2-ol] | 14.3
Cc1nc(N[C@H](C)c2cccc(C(F)(F)C(C)(C)O)c2F)c2cc(P(=O)(C(C)C)C(C)C)c(C)nc2n1 [Example 21, 1-{3-[(1R)-1-({6-[di(propan-2-yl)phosphoryl]-2,7-dimethylpyrido[2,3-d]pyrimidin-4-yl}amino)ethyl]-2-fluorophenyl}-1,1-difluoro-2-methylpropan-2-ol] | 121
Cc1nc(N[C@H](C)c2cccc(C(F)(F)F)c2C)c2cc(P(C)(C)=O)c(C(F)(F)F)nc2n1 [Example 22, 6-(dimethylphosphoryl)-2-methyl-N-{(1R)-1-[2-methyl-3-(trifluoromethyl)phenyl]ethyl}-7-(trifluoromethyl)pyrido[2,3-d]pyrimidin-4-amine] | 18.7
CC(=O)N1CCP(=O)(c2cc3c(N[C@H](C)c4cccc(C(F)(F)F)c4C)nc(C)nc3c(O)n2)CC1 [Example 30, 1-acetyl-4-[8-hydroxy-2-methyl-4-({(1R)-1-[2-methyl-3-(trifluoromethyl)phenyl]ethyl}amino)pyrido[3,4-d]pyrimidin-6-yl]-1,4lambda^5-azaphosphinan-4-one] | 1360
CC(=S)N1CCP(=O)(c2cc3c(N[C@H](C)c4cccc(C(F)(F)F)c4C)nc(C)nc3cn2)CC1 [Example 32, 1-ethanethioyl-4-[2-methyl-4-({(1R)-1-[2-methyl-3-(trifluoromethyl)phenyl]ethyl}amino)pyrido[3,4-d]pyrimidin-6-yl]-1,4lambda^5-azaphosphinan-4-one] | 12.2
CC(=O)N1CCP(=O)(c2cc3c(N[C@H](C)c4cccc(C(F)(F)F)c4C)nc(C)nc3c(CO)n2)CC1 [Example 34, 1-acetyl-4-[8-(hydroxymethyl)-2-methyl-4-({(1R)-1-[2-methyl-3-(trifluoromethyl)phenyl]ethyl}amino)pyrido[3,4-d]pyrimidin-6-yl]-1,4lambda^5-azaphosphinan-4-one] | 72.8
CC(=O)N1CCP(=O)(c2cc3c(N[C@H](C)c4cccc(C(F)(F)F)c4C)nc(C)nc3c(C3CC3)n2)CC1 [Example 35, 1-acetyl-4-[8-cyclopropyl-2-methyl-4-({(1R)-1-[2-methyl-3-(trifluoromethyl)phenyl]ethyl}amino)pyrido[3,4-d]pyrimidin-6-yl]-1,4lambda^5-azaphosphinan-4-one] | 21.5
CC(=O)N1CCP(=O)(c2cc3c(N[C@H](C)c4cccc(C(F)(F)F)c4C)nc(C)nc3c(C(F)F)n2)CC1 [Example 36, 1-acetyl-4-[8-(difluoromethyl)-2-methyl-4-({(1R)-1-[2-methyl-3-(trifluoromethyl)phenyl]ethyl}amino)pyrido[3,4-d]pyrimidin-6-yl]-1,4lambda^5-azaphosphinan-4-one] | 16.7

Now those with a lower IC50, led by results:

IC50 [nM] | Compound
10.6 | Cc1nc(N[C@H](C)c2cccc(C(F)(F)C(C)(C)O)c2F)c2cc(P3(=O)CCCC3)cnc2n1 [Example 16, 1-[4-({(1R)-1-[3-(1,1-difluoro-2-hydroxy-2-methylpropyl)-2-fluorophenyl]ethyl}amino)-2-methylpyrido[2,3-d]pyrimidin-6-yl]-1lambda^5-phospholan-1-one]
10.6 | Cc1nc(N[C@H](C)c2cccc(C(F)(F)F)c2C)c2cc(P(C)(C)=O)c(C)nc2n1 [Example 17, 6-(dimethylphosphoryl)-2,7-dimethyl-N-{(1R)-1-[2-methyl-3-(trifluoromethyl)phenyl]ethyl}pyrido[2,3-d]pyrimidin-4-amine]
9.78 | Cc1nc(N[C@H](C)c2cccc(C(F)(F)C(C)(C)O)c2F)c2cc(P(C)(C)=O)cnc2n1 [Example 14, 1-{3-[(1R)-1-{[6-(dimethylphosphoryl)-2-methylpyrido[2,3-d]pyrimidin-4-yl]amino}ethyl]-2-fluorophenyl}-1,1-difluoro-2-methylpropan-2-ol]
9.69 | COCc1nc(P2(=O)CCN(C(C)=O)CC2)cc2c(N[C@H](C)c3cccc(C(F)(F)F)c3C)nc(C)nc12 [Example 37, 1-acetyl-4-[8-(methoxymethyl)-2-methyl-4-({(1R)-1-[2-methyl-3-(trifluoromethyl)phenyl]ethyl}amino)pyrido[3,4-d]pyrimidin-6-yl]-1,4lambda^5-azaphosphinan-4-one]
9.18 | Cc1nc(N[C@H](C)c2cccc(C(F)(F)C(C)(C)O)c2F)c2cc(P(C)(C)=O)nc(O)c2n1 [Example 26, 4-({(1R)-1-[3-(1,1-difluoro-2-hydroxy-2-methylpropyl)-2-fluorophenyl]ethyl}amino)-6-(dimethylphosphoryl)-2-methylpyrido[3,4-d]pyrimidin-8-ol]
7.8 | CC(=O)N1CCP(=O)(c2cc3c(N[C@H](C)c4cccc(C(F)F)c4F)nc(C)nc3cn2)CC1 [Example 10, 1-acetyl-4-[4-({(1R)-1-[3-(difluoromethyl)-2-fluorophenyl]ethyl}amino)-2-methylpyrido[3,4-d]pyrimidin-6-yl]-1,4lambda^5-azaphosphinan-4-one]
7.21 | Cc1nc(N[C@H](C)c2cccc(C(F)(F)C(C)(C)O)c2F)c2cc(P3(=O)CCCC3)c(C)nc2n1 [Example 20, 1-[4-({(1R)-1-[3-(1,1-difluoro-2-hydroxy-2-methylpropyl)-2-fluorophenyl]ethyl}amino)-2,7-dimethylpyrido[2,3-d]pyrimidin-6-yl]-1lambda^5-phospholan-1-one]
7.06 | Cc1nc(N[C@H](C)c2cccc(C(F)(F)CO)c2F)c2cc(P(C)(C)=O)ccc2n1 [Example 33, 2-{3-[(1R)-1-{[6-(dimethylphosphoryl)-2-methylquinazolin-4-yl]amino}ethyl]-2-fluorophenyl}-2,2-difluoroethan-1-ol]
6.37 | Cc1nc(N[C@H](C)c2cccc(C(F)(F)F)c2C)c2cc(P3(=O)CCN(C=O)CC3)ncc2n1 [Example 31, 4-[2-methyl-4-({(1R)-1-[2-methyl-3-(trifluoromethyl)phenyl]ethyl}amino)pyrido[3,4-d]pyrimidin-6-yl]-4-oxo-1,4lambda^5-azaphosphinane-1-carbaldehyde]
